Here are results for three compounds from publication PMC7998669, “7-(2-Anilinopyrimidin-4-yl)-1-benzazepin-2-ones Designed by a “Cut and Glue” Strategy Are Dual Aurora A/VEGF-R Kinase Inhibitors” (Molecules, 2021).

pIC50: −log10 of the molar value.

A word on the pIC50: it is the negative decadic logarithm of the IC50, by convention in mol/L. The low end stands for a high IC50, the high end for a low IC50.

Common to all, as to test: radiometric 33PanQinase protein kinase assay
Holding throughout (type): biochemical
What all share (details): radiometric assay, 1 µM ATP

Experiment [1] addresses T1, Aurora-A (Homo sapiens, UniProt O14965).
T1 construct: host or cells: Sf9 (baculovirus)
T1 sequence (O14965 1-403): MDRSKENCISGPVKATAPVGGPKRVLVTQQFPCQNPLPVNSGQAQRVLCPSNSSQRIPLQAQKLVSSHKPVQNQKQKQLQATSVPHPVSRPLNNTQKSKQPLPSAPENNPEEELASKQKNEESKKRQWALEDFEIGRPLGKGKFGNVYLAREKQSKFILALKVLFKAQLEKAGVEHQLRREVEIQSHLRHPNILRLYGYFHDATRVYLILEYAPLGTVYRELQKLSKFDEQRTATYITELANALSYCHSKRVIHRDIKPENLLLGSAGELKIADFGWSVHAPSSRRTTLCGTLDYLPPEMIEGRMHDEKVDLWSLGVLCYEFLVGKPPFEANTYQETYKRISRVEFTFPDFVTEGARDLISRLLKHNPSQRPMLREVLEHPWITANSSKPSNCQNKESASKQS
How it is done: (§1) The inhibitory activity of prototype 2a was determined in a panel of 24 tumor-relevant protein kinases using a radiometric assay. Only the kinases Aurora A, VEGF-R2 and VEGF-R3 were inhibited with single digit micromolar IC50 values (Table 2). Structural modifications were then implemented, particularly directed to improve inhibition of Aurora A. The so-designed congeners with small substituents at the aniline ring 2b–2n were examined for inhibition of Aurora A and of VEGF-R2, VEGF-R3 and Aurora B for comparison (Table 3).
(§2) The screening for protein kinase inhibition was performed with the radiometric ^33Panqinase activity assay at Reaction Biology Europe GmbH (Freiburg) using a robotic system (Beckmann Coulter/SagianRoboter) and 96-well plates (FlashPlates, Perkin/Elmer/NEN, Boston, MA, USA). In brief, the transfer of ^33P-phosphate into the substrate was measured with a microplate scintillation counter (Microbeta Trilux, Wallace). Protein kinases were expressed in Sf9 cells as recombinant glutathione S-transferase (GST) or polyhistidine (His)-tagged proteins in baculovirus. Isolation and purification of expressed kinases were performed with affinity chromatography by using GSH agarose (Sigma) or Ni-NTA agarose (Qiagen). The standard solution for each enzyme contained: 60 mM HEPES-NaOH (pH 7.5), 3 mM MgCl2, 3 µM sodium orthovanadate, 1.2 mM DTT, 50 µg/mL PEG20000 and 1 µM [γ-^33P]-ATP (approximately 5 × 10^5 cpm per well). In chronological order the reaction mixture was prepared: 20 µL standard solution, 5 µL ATP solution in water, 5 µL of the compound in 10% DMSO and 20 µL of enzyme/substrate mixture (50:50). Each kinase contained different substrates in different concentrations: 125 ng/50 µL Poly(Glu, Tyr)4:1 for 20 ng/50 µL IGF1-R, 25 ng/50 µL IGF1-R, 20 ng/50 µL EGF-R, 25 ng/50 µL EGF-R, 40 ng/50 µL EGF-R, 10 ng/50 µL EPHB4, 20 ng/50 µL EPHB4, 200 ng/50 µL ERBB2, 10 ng/50 µL SRC, 100 ng/50 µL FAK, 200 ng/50 µL FAK, 50 ng/50 µL VEGF-R2, 100 ng/50 µL VEGF-R3, 200 ng/50 µLTIE2; 250 ng/50 µL Poly(Glu, Tyr)4:1 for 200 ng/50 µL TIE2; 500 ng/50 µL tetra (LRRWSLG) for 50 ng/50 µL Aurora-A, 25 ng/50 µL PAK4, 25 ng/50 µL PDK1; 250 ng/50 µL tetra (LRRWSLG) for 50 ng/50 µL Aurora-B, 200 ng/50 µL Aurora-B; 125 ng/50 µL Histon H1 for 100 ng/50 µL CDK2/CycA; 250 ng/50 µL Rb-CTF for 50 ng/50 µL CDK/CycD1; 500 ng/50 µL Rb-CTF for 50 ng/50 µL CDK4/CycD1; 125 ng/50 µL Poly(ala, Glu, Lys, Tyr)6:2:5:1 for 25 ng/50 µL INS-R, 50 ng/50 µL PDGFR-beta, 100 ng/50 µL PDGFR-beta, 100 ng/50 µL FLT3, 150 ng/50 µL FLT3, 20 ng/50 µL MET, 50 ng/50 µL MET, 100 ng/50 µL MET; 250 ng/50 µL Casein for 200 ng/50 µL CK2-alpha1, 200 ng/50 µL PLK1; 1000 ng/50 µL Casein for 200 ng/50 µL PLK1, 200 ng/50 µL CK2-alpha1; 1000 ng/50 µLGSK3 (14–27) for 100 ng/50 µL AKT1; 125 ng/50 µL p53-CTM for 150 ng/50 µL CK2-alpha1, 200 ng/50 µLCK2-alpha1; 250 ng/50 µL MEK-KM for 20 ng/50 µL B-RAF-VE; autophosphorylation at ARK5, COT and SAK. After incubation (80 min, 30 °C) the reaction was stopped by adding 50 µL 2% (v/v) phosphoric acid to the reaction mixture. The microplate was washed twice with 200 µL 0.9% (v/v) saturated sodium chloride or water. The measured radioactivity, conditioned by the incorporation of [γ-^33P]-phosphate, is proportional to kinase activity. Furthermore, low control and high control were measured to determine the residual activity (%). As low controls, mixtures with substrate, but without enzyme were used to determine the unspecific binding of [γ-^33P]-phosphate to the well plate. Mixtures with enzyme, but without inhibitor were used as high controls to determine maximum enzyme activity. The IC50-values of the distinct compounds were calculated with Quattro Workflow V1.1.0.8 (Quattro Research GmbH, München, Germany). Dose response curves were generated by measurement of the residual activity of ten different inhibitor concentrations (0.1 mM, 30.0 µM, 10 µM, 3.0 µM, 1.0 µM, 0.3 µM, 0.1 µM, 30.0 nM, 10.0 nM and 3.0 nM). […]

Experiment [2] deals with T2, VEGF-R2 (Homo sapiens, UniProt P35968).
T2 construct: host or cells: Sf9 (baculovirus)
How it is done:
as §1, §2

The target of experiment [3] is T3, Aurora-B (Homo sapiens, UniProt Q96GD4).
T3 construct: host or cells: Sf9 (baculovirus)
On the procedure:
as §1, §2

In experiment [4] the target is T4, VEGF-R3 (Homo sapiens, UniProt P35916).
T4 construct: host or cells: Sf9 (baculovirus)
On the procedure: as §1, §2

T2 sequence (P35968 20-1356): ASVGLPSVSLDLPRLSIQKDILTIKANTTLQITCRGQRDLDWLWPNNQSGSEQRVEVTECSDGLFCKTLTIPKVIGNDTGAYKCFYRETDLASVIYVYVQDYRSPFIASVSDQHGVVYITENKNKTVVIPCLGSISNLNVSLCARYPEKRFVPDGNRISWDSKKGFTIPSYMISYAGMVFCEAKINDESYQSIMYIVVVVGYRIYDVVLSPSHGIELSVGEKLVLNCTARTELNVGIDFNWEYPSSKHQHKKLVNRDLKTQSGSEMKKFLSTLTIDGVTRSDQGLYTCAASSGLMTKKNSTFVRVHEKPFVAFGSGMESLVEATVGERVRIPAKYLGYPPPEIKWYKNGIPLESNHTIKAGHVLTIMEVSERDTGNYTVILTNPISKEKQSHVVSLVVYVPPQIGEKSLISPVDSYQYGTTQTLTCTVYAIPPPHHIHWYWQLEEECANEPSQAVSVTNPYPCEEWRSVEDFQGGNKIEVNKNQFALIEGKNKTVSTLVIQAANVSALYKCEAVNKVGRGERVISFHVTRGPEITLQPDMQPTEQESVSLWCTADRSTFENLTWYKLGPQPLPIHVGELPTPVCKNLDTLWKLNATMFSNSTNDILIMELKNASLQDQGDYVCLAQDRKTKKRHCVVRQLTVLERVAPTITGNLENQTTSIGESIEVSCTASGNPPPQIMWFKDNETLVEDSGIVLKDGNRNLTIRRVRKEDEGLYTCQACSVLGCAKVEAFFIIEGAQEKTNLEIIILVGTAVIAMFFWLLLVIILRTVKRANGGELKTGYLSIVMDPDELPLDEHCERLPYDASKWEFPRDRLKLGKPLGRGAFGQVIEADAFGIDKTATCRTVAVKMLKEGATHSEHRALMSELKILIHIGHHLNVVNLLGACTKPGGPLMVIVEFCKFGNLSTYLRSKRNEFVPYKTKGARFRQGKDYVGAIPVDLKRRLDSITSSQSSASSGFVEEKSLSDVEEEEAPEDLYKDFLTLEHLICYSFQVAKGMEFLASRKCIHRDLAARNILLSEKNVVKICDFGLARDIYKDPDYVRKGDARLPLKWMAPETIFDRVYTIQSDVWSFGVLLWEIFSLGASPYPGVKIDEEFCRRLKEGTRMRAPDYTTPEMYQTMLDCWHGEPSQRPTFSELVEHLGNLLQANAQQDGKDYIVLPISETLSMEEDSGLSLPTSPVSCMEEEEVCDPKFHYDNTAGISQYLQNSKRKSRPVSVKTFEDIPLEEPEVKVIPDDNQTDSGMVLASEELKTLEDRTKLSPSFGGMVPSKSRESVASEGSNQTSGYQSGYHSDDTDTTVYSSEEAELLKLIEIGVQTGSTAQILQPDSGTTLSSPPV
T4 sequence (P35916 25-1363): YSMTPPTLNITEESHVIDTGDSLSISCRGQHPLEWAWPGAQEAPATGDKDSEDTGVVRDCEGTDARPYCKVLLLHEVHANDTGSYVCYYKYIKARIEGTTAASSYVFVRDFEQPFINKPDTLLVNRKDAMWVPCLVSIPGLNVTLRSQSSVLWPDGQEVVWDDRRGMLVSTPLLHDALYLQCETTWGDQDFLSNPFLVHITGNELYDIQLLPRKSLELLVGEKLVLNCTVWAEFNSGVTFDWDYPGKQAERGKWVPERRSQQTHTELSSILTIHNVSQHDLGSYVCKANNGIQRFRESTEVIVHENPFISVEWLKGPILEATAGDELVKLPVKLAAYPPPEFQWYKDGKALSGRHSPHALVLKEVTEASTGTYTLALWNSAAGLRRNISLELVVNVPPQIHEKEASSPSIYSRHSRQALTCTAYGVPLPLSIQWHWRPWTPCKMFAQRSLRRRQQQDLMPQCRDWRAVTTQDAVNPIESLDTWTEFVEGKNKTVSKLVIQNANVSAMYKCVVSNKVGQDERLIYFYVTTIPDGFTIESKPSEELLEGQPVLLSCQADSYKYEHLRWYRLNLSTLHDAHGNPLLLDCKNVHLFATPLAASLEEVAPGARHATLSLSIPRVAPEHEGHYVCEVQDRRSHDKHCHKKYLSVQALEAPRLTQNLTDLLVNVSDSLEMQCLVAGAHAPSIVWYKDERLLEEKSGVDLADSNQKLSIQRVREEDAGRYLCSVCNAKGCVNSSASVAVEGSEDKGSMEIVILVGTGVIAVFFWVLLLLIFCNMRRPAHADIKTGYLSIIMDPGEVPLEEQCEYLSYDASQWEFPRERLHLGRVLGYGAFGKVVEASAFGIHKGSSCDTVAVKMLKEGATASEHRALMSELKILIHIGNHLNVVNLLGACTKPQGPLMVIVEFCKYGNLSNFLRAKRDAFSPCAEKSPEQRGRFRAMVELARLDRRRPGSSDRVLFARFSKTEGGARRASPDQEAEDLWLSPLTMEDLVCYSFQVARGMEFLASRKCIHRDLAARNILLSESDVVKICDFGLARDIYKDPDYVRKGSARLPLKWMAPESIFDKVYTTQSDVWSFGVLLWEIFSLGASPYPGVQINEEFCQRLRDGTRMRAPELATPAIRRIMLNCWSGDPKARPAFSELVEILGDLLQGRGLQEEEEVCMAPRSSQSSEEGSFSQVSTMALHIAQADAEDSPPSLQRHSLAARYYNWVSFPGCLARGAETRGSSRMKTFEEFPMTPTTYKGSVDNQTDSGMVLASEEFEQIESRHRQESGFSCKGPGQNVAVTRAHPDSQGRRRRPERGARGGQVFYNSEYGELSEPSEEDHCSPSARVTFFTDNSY
T3 sequence (Q96GD4 whole entry): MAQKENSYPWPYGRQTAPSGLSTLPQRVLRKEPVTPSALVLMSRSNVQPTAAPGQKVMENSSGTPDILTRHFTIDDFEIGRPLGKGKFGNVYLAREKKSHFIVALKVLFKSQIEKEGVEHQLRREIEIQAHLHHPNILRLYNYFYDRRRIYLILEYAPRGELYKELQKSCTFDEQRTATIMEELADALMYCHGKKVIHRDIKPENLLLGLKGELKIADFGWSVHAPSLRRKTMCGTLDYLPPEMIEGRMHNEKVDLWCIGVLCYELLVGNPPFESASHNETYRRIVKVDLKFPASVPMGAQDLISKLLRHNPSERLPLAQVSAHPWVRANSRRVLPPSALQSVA

Take `O=C1CCCc2cc(-c3ccnc(Nc4ccccc4)n3)ccc2N1` [Compound 2a, 7-(2-Anilinopyrimidin-4-yl)-1,3,4,5-tetrahydro-2H-1-benzazepin-2-one]: the pIC50 was 5.62 in experiment [1], 5.55 in experiment [2], 4.59 in experiment [3] and 5.23 in experiment [4].

For the compound `O=C1CCCc2cc(-c3ccnc(Nc4ccc(O)cc4)n3)ccc2N1` [Compound 2e, 7-[2-(4-Hydroxyanilino)pyrimidin-4-yl]-1,3,4,5-tetrahydro-2H-1-benzazepin-2-one], the pIC50 in experiment [1] was 6.00; in experiment [2] it was 5.96; in experiment [3], 5.46; in experiment [4] it was 5.82.

In the case of `COc1ccc(Nc2nccc(-c3ccc4c(c3)CCCC(=O)N4)n2)cc1O` [Compound 2n, 7-[2-(3-Hydroxy-4-methoxyanilino)pyrimidin-4-yl]-1,3,4,5-tetrahydro-2H-1-benzazepin-2-one], the pIC50 in experiment [1] is 5.85; in experiment [2], 6.20; in experiment [3] it was 5.35; in experiment [4], 6.26.
